Source: patent US8658604B2, “Template-fixed beta-hairpin peptidomimetics with protease inhibitory activity” (Polyphor Ltd, priority 2005, dated 2014)
Where a SMILES comes first, the peptide text is derived from it.

How the values were obtained:
HELA cells (Acc57) = test: Cytotoxicity assay (MTT reduction), HELA cells; format: cell-based; details: Hela cells
Method: The cytotoxicity of the peptides to HELA cells (Acc57) and COS-7 cells (CRL-1651) was determined using the MTT reduction assay [see ref. 2 and 3, below]. Briefly the method was as follows: HELA cells and COS-7 cells were seeded at 7.0×10^3 and, respectively, 4.5×10^3 cells per well and grown in 96-well microtiter plates for 24 hours at 37° C. at 5% CO2. At this point, time zero (Tz) was determined by MTT reduction (see below). The supernatant of the remaining wells was discarded, and fresh medium and the peptides in serial dilutions of 12.5, 25 and 50 μM were pipetted into the wells. Each peptide concentration was assayed in triplicate. Incubation of the cells was continued for 48 hours at 37° C. at 5% CO2. Wells were then washed once with phosphate buffered saline (PBS) and subsequently 100 μl MTT reagent (0.5 mg/ml in medium RPMI1640 and, respectively, DMEM) were added to the wells. This was incubated at 37° C. for 2 hours and subsequently the medium was aspirated and 100 μl isopropanol were added to each well. The absorbance at 595 nm of the solubilized product was measured (OD595peptide). For each concentration averages were calculated from triplicates. The percentage of growth was calculated as follows: (OD595peptide-OD595Tz-OD595Empty well)/(OD595Tz-OD595Empty well)×100% and was plotted for each peptide concentration.
The LC 50 values (Lethal Concentration, defined as the concentration that kills 50% of the cells) were determined for each peptide by using the trend line function of EXCEL (Microsoft Office 2000) for the concentrations (50, 25, 12.5 and 0 μM), the corresponding growth percentages and the value −50, (=TREND(C50:C0,%50:%0,−50)).
The GI 50 (Growth Inhibition) concentrations were calculated for each peptide by using a trend line function for the concentrations (50, 25, 12.5 and 0 μg/ml), the corresponding percentages and the value 50, (=TREND (C50:C0,%50:%0,50).

[1] = target: Chymotrypsin, from human pancreas (Homo sapiens, UniProt P17538); test: Enzymatic assay, chymotrypsin
[2] = target: T1, Elastase from human neutrophils (Homo sapiens, UniProt P08246); test: Enzymatic assay, elastase; details: Elastase IC50
T1 sequence (P08246 30-267): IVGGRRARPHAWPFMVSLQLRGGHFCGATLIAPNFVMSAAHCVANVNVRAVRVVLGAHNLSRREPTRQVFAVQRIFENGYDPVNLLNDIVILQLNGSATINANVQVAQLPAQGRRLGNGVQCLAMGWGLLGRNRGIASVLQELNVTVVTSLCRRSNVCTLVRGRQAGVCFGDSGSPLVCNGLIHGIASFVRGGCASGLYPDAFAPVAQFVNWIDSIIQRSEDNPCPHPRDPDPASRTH

[3] = target: Trypsin, from human pancreas (Homo sapiens, UniProt P07477); test: Enzymatic assay, trypsin; details: at 100 μM
[4] = system: Tryptase, from human lung; test: Enzymatic assay, tryptase; details: at 100 μM
[5] = target: T2, CathepsinG, from human neutrophils (Homo sapiens, UniProt P08311); test: Enzymatic assay, cathepsin G; details: for IC50: Cathepsin G IC50
T2 sequence (P08311 21-244): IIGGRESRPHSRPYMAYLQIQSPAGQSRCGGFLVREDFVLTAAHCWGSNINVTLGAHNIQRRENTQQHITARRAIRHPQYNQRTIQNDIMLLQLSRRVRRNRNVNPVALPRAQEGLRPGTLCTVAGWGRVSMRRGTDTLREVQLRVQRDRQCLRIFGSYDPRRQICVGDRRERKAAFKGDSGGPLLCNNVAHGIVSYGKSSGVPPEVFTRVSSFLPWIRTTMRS

[6] = target: Urokinase from human urine (Homo sapiens, UniProt P00749); test: Enzymatic assay, urokinase
[7] = target: Thrombin, from Human Plasma (Homo sapiens, UniProt P00734); test: Enzymatic assay, thrombin
Chymase, from human skin = target: T3, Chymase, from human skin (Homo sapiens, UniProt P23946); test: Enzymatic assay, chymase
T3 sequence (P23946 22-247): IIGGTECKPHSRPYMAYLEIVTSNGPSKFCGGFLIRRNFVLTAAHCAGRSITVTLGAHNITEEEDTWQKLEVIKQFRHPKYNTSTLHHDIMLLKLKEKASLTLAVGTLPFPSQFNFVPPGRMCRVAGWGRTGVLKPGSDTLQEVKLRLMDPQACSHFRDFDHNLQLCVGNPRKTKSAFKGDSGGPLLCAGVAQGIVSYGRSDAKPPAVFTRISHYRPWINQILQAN

[8] = target: Coagulation Factor Xa, from uman plasma (Homo sapiens, UniProt P00742); test: Enzymatic assay, coagulation factor Xa
Coagulation Factor Xa, from uman plasma, sequence (P00742 235-488 limits assumed): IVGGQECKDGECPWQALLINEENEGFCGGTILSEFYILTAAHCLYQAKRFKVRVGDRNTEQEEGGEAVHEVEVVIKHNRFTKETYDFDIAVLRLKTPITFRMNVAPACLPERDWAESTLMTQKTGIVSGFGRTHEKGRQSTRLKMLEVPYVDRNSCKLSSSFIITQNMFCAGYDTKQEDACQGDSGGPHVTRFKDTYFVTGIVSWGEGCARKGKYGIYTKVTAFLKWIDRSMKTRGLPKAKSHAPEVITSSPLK
Coagulation Factor Xa, from uman plasma, sequence (P00742 41-179 limits assumed): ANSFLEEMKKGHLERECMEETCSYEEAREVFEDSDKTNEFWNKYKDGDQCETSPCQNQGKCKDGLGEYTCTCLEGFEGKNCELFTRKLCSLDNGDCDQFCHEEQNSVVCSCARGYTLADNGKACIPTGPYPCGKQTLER

Chymotrypsin, from human pancreas, sequence (P17538 19-263): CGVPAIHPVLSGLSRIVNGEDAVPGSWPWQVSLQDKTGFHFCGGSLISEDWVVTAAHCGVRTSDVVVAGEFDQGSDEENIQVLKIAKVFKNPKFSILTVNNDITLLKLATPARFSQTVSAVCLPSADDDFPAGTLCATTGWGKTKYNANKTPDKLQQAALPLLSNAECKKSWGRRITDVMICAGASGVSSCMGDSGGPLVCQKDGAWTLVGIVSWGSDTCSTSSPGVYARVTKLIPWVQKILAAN

Compound	Cytotoxicity LC50/GI50 Hela cells (HELA cells (Acc57)) [µM]	IC50 [1] [µM]	IC50 [2] [µM]	Trypsin at 100 μM % [3] [%]	Tryptase at 100 μM % [4] [%]	IC50 [5] [µM]	Urokinase at 100 μM % [6] [%]	Thrombin at 100 μM % [7] [%]	Chymase at 100 μM % (Chymase, from human skin) [%]	FXa at 100 μM % [8] [%]	Cathepsin G at 100 μM % ([5]; at 100 μM (stated in cell instead of IC50)) [at 100%]	Chymotrypsin at 100 μM % ([1]; at 100 μM) [%]	Tryptase At 100 μM % [4] [%]	Cathepsin G at 100 μM % ([5]; at 100 μM) [at 100%]
CCCC[C@@H]1NC(=O)[C@@H]2CCCN2C(=O)[C@H]2CCCN2C(=O)[C@H](Cc2ccc(O)cc2)NC(=O)[C@@H]2CSSC[C@H](NC1=O)C(=O)N[C@@H]([C@@H](C)O)C(=O)N[C@@H](C)C(=O)N[C@@H](CO)C(=O)N[C@@H](C1CCCCC1)C(=O)N1CCC[C@H]1C(=O)N1CCC[C@H]1C(=O)N[C@@H](CCC(N)=O)C(=O)N2 [Ex. 84] (HELM PEPTIDE1{[Nle].C.T.A.S.[O=C([C@@H](N[*:1])C1CCCCC1)[*:2]].P.P.Q.C.Y.[dP].P}$PEPTIDE1,PEPTIDE1,2:R3-10:R3|PEPTIDE1,PEPTIDE1,1:R1-13:R2$$$V2.0)	9	17.1	0.018	10.8	4.2	20.2	10.4	20.6	0	13.3	–	–	–	–
CCCC[C@@H]1NC(=O)[C@@H]2CCCN2C(=O)[C@H]2CCCN2C(=O)[C@H](CCC(N)=O)NC(=O)[C@@H]2CSSC[C@H](NC1=O)C(=O)N[C@@H]([C@@H](C)O)C(=O)N[C@@H](C)C(=O)N[C@@H](CO)C(=O)N[C@@H]([C@@H](C)CC)C(=O)N1CCC[C@H]1C(=O)N1CCC[C@H]1C(=O)N[C@@H](CCC(N)=O)C(=O)N2 [Ex. 91] (HELM PEPTIDE1{[Nle].C.T.A.S.I.P.P.Q.C.Q.[dP].P}$PEPTIDE1,PEPTIDE1,2:R3-10:R3|PEPTIDE1,PEPTIDE1,1:R1-13:R2$$$V2.0)	79	48.1	0.028	0	–	–	–	13.5	4.7	19.4	45	–	–	–
CCCC[C@@H]1NC(=O)[C@@H]2CCCN2C(=O)[C@H]2CCCN2C(=O)[C@H](Cc2ccc3ccccc3c2)NC(=O)[C@@H]2CSSC[C@H](NC1=O)C(=O)N[C@@H]([C@@H](C)O)C(=O)N[C@@H](C)C(=O)N[C@@H](CO)C(=O)N[C@@H]([C@@H](C)CC)C(=O)N1CCC[C@H]1C(=O)N1CCC[C@H]1C(=O)N[C@@H](CCC(N)=O)C(=O)N2 [Ex. 95] (HELM PEPTIDE1{[Nle].C.T.A.S.I.P.P.Q.C.[O=C([C@H](Cc1ccc2ccccc2c1)N[*:1])[*:2]].[dP].P}$PEPTIDE1,PEPTIDE1,2:R3-10:R3|PEPTIDE1,PEPTIDE1,1:R1-13:R2$$$V2.0)	89	33.7	0.024	8.9	0	38.7	10.3	0	0	11.3	–	–	–	–
CCCCCC[C@@H]1NC(=O)[C@@H]2CCCN2C(=O)[C@H]2CCCN2C(=O)[C@H](Cc2ccc(O)cc2)NC(=O)[C@@H]2CSSC[C@H](NC1=O)C(=O)N[C@@H]([C@@H](C)O)C(=O)N[C@@H](C)C(=O)N[C@@H](CO)C(=O)N[C@@H]([C@@H](C)CC)C(=O)N1CCC[C@H]1C(=O)N1CCC[C@H]1C(=O)N[C@@H](CCC(N)=O)C(=O)N2 [Ex. 99] (HELM PEPTIDE1{[CCCCCC[C@H](N[*:1])C(=O)[*:2]].C.T.A.S.I.P.P.Q.C.Y.[dP].P}$PEPTIDE1,PEPTIDE1,2:R3-10:R3|PEPTIDE1,PEPTIDE1,1:R1-13:R2$$$V2.0)	58	8.56	0.016	30.5	0	85.2	17.4	0	0	0	–	–	–	–
CCCC[C@@H]1NC(=O)[C@@H]2CCCN2C(=O)[C@H]2CCCN2C(=O)[C@H](CC2CCCCC2)NC(=O)[C@@H]2CSSC[C@H](NC1=O)C(=O)N[C@@H]([C@@H](C)O)C(=O)N[C@@H](C)C(=O)N[C@@H](CO)C(=O)N[C@@H]([C@@H](C)CC)C(=O)N1CCC[C@H]1C(=O)N1CCC[C@H]1C(=O)N[C@@H](CCC(N)=O)C(=O)N2 [Ex. 97] (HELM PEPTIDE1{[Nle].C.T.A.S.I.P.P.Q.C.[Cha].[dP].P}$PEPTIDE1,PEPTIDE1,2:R3-10:R3|PEPTIDE1,PEPTIDE1,1:R1-13:R2$$$V2.0)	100	77.4	0.024	9.5	0	> 100	11.9	11.6	0	4.8	–	–	–	–
CCCC[C@@H]1NC(=O)[C@@H]2CCCN2C(=O)[C@H]2CCCN2C(=O)[C@H](Cc2ccc(O)cc2)NC(=O)[C@@H]2CSSC[C@H](NC1=O)C(=O)N[C@@H]([C@@H](C)O)C(=O)N[C@@H](C)C(=O)N[C@@H](CO)C(=O)N[C@@H](CC1CCCCC1)C(=O)N1CCC[C@H]1C(=O)N1CCC[C@H]1C(=O)N[C@@H](CCC(N)=O)C(=O)N2 [Ex. 141] (HELM PEPTIDE1{[Nle].C.T.A.S.[Cha].P.P.Q.C.Y.[dP].P}$PEPTIDE1,PEPTIDE1,2:R3-10:R3|PEPTIDE1,PEPTIDE1,1:R1-13:R2$$$V2.0)	56	–	–	0	–	–	–	0	0	15.3	–	72.9	44.5	63.4
CCCC[C@@H]1NC(=O)[C@H](C(C)C)NC(=O)[C@H]2CCCN2C(=O)[C@H](Cc2ccc(O)cc2)NC(=O)[C@@H]2CSSC[C@H](NC1=O)C(=O)N[C@@H]([C@@H](C)O)C(=O)N[C@@H](C)C(=O)N[C@@H](CO)C(=O)N[C@@H]([C@@H](C)CC)C(=O)N1CCC[C@H]1C(=O)N1CCC[C@H]1C(=O)N[C@@H](CCC(N)=O)C(=O)N2 [Ex. 125] (HELM PEPTIDE1{[Nle].C.T.A.S.I.P.P.Q.C.Y.[dP].V}$PEPTIDE1,PEPTIDE1,2:R3-10:R3|PEPTIDE1,PEPTIDE1,1:R1-13:R2$$$V2.0)	37	> 20	0.015	28.3	–	18.3	–	0	4.8	0	–	–	–	–
CCCCCC[C@@H]1NC(=O)[C@H](CO)NC(=O)[C@H](C)NC(=O)[C@H]([C@@H](C)O)NC(=O)[C@@H]2CSSC[C@H](NC(=O)[C@H](CCC(N)=O)NC(=O)[C@@H]3CCCN3C(=O)[C@@H]3CCCN3C1=O)C(=O)N[C@@H](Cc1ccc(O)cc1)C(=O)N1CCC[C@@H]1C(=O)N1CCC[C@H]1C(=O)N[C@@H](CCCC)C(=O)N2 [Ex. 80] (HELM PEPTIDE1{[Nle].C.T.A.S.[CCCCCC[C@H](N[*:1])C(=O)[*:2]].P.P.Q.C.Y.[dP].P}$PEPTIDE1,PEPTIDE1,2:R3-10:R3|PEPTIDE1,PEPTIDE1,1:R1-13:R2$$$V2.0)	12	> 20	0.035	–	–	–	–	–	–	–	–	–	–	–
